The experiment relates to egg-nidation in rats. The experiment in a line: Nidation inhibition in rats (egg-nidation inhibitory action, indirect measure of anti-prolactin activity). Conditions: Rattus norvegicus, po, read-out: Nidation inhibition in rats, ED50. Format: in vivo, Sprague Dowley rats. How it is done: Pregnant Sprague Dowley rats weighing 200-250 g were used. The compounds to be tested, dissolved in diluted mineral acids, were administered orally to groups from six to eight rats on day 5 of pregnancy. The animals were sacrificed on day 14 and the uteri were examined. The absence of implantation sites was taken as the criterion of anti-prolactin activity. Several doses were tested for the ED50 evaluation. As reference standard Bromocryptine was used.

[1] abbreviates: pregnant rats, given on day 5 of pregnancy, absence of implantation sites on day 14.

Like-named read-outs stand apart in the source and are kept apart here.

For `CC(C)C[C@H]1C(=O)N2CCC[C@H]2[C@]2(O)O[C@](NC(=O)[C@@H]3C=C4c5cccc6[nH]c(Br)c(c56)C[C@H]4N(C)C3)(C(C)C)C(=O)N12` [2-bromo-α-ergocryptine, reference compound], the ED50 (usually the dose that gives a 50% effect, or the effect in half of the subjects) was determined as 5.7 mg/kg.

Consider `Cc1cc(NC(=O)[C@@H]2C[C@@H]3c4cccc5[nH]cc(c45)C[C@H]3N(C)C2)nc(C)n1` [Example 1, N-(2', 6'-dimethyl-4'-pyrimidyl)-6-methylergoline-8β-carboxamide], for which the ED50 under setting [1] amounted to 1.8 mg/kg.

Regarding `Cc1cc(NC(=O)[C@@H]2C[C@@H]3c4cccc5[nH]c(C)c(c45)C[C@H]3N(C)C2)nc(C)n1` [Example 4, N-(2',6'-dimethyl-4'-pyrimidyl)-2,6-dimethylergoline-8β-carboxamide], the ED50 under setting [1] lay in the range of 0.5 to 1 mg/kg.

For `CCCN1C[C@H](C(=O)Nc2cc(C)nc(C)n2)C[C@@H]2c3cccc4[nH]cc(c34)C[C@H]21` [Example 5, N-(2',6'-dimethyl-4'-pyrimidyl)-6-propylergoline-8β-carboxamide], under setting [1], the ED50 is 0.3 mg/kg.

These data come from patent publication US4632990A, “Ergoline carboxamides” (Farmitalia Carlo Erba S.p.A., priority 1982, dated 1986).
